Each compound was assayed against T1, KCNT1 (KNa1.1, Slack) (Homo sapiens, UniProt Q5JUK3) (assay: KCNT1 patch clamp assay (SyncroPatch 384PE automated patch clamp)). Conditions: tetracycline inducible HEK-TREX cell line; perforated patch; step from −80 mV to 0 mV; room temperature; read-out: KCNT1-WT IC50.
T1 construct: expressed in transfected cells; host or cells: HEK-TREX (tetracycline-inducible HEK cell line)
T1 sequence (Q5JUK3 1-1230): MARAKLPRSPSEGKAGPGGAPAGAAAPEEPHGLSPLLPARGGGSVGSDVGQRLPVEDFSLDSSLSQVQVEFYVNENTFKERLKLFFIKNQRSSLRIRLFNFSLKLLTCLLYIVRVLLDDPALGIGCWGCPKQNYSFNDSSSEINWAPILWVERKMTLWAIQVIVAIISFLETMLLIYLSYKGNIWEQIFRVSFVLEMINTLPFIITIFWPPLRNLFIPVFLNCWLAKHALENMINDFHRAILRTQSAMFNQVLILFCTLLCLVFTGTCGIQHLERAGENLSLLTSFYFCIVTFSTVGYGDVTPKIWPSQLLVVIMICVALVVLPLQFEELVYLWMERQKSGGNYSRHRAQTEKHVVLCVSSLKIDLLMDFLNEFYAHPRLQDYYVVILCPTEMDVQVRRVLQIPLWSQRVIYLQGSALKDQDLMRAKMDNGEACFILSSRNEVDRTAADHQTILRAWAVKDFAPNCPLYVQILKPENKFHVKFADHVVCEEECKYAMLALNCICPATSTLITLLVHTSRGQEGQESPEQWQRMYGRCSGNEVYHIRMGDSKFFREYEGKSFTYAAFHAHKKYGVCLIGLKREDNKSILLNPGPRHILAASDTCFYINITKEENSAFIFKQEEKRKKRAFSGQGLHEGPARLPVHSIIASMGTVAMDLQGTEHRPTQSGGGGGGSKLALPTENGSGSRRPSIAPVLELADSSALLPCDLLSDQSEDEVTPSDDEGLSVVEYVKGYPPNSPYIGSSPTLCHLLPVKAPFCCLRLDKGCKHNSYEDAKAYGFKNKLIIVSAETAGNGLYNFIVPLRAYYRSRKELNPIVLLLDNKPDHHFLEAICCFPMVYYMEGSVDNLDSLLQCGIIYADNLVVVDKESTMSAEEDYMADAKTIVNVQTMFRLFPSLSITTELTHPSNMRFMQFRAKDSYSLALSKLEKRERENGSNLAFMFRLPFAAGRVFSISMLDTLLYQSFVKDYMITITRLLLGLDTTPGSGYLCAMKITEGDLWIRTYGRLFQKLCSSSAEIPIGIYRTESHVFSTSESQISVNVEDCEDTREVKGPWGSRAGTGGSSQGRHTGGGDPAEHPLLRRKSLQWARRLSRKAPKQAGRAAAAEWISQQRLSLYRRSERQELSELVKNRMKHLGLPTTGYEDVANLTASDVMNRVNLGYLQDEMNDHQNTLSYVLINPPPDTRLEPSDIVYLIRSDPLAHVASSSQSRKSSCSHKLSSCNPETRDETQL
Format: cell-based
Method in brief: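 Tetracycline-inducible HEK-TREX cells; perforated-patch (10 μM escin) population recordings at room temperature, holding −80 mV with 100 ms step to 0 mV.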

Row | Compound | IC50 [µM]
1 | Cc1cccc(-c2noc([C@H](C)NC(=O)c3cn(C(C)C)nc3C)n2)c1 [Compound 233] | ≤ 1
2 | CC(NC(=O)c1cc(C2CC2)nn1C)c1nc(-c2cccc(C(F)(F)F)c2)no1 (centres unmarked) [Compound 12] | ≤ 1
3 | C[C@H](NC(=O)OC(C)(C)C)c1nc(-c2cccc(F)c2)no1 [Compound 281, tert-butyl N-[(1S)-1-[3-(3-fluorophenyl)-1,2,4-oxadiazol-5-yl]ethyl]carbamate] | 1 to 20
4 | Cn1nc(C(F)(F)F)cc1C(=O)NC1(c2nc(-c3cccc(F)c3)no2)CCOC1 (centres unmarked) [Compound 149] | ≤ 1
5 | CC[C@H](NC(=O)c1cc(C)nn1-c1cccnc1)c1nc(-c2ccnc(C)c2)no1 [Compound 231, (S)-3-methyl-N-(1-(3-(2-methylpyridin-4-yl)-1,2,4-oxadiazol-5-yl)propyl)-1-(pyridin-3-yl)-1H-pyrazole-5-carboxamide] | 1 to 20
6 | C[C@H](NC(=O)c1cc(C(F)(F)F)nn1C)c1nc(-c2ccnc(C3CCCC3)c2)no1 [Compound 307, (S)—N-(1-(3-(2-cyclopentylpyridin-4-yl)-1,2,4-oxadiazol-5-yl)ethyl)-1-methyl-3-(trifluoromethyl)-1H-pyrazole-5-carboxamide] | ≤ 1
7 | C[C@H](NC(=O)c1ccnn1C1CCCC1)c1nc(-c2ccnc(C3CC3)c2)no1 [Compound 270] | ≤ 1
8 | COC1CN(c2cc(-c3noc([C@H](C)NC(=O)c4cc(C(F)(F)F)nn4C)n3)ccn2)C1 [Compound 213, (S)—N-(1-(3-(2-(3-methoxyazetidin-1-yl)pyridin-4-yl)-1,2,4-oxadiazol-5-yl)ethyl)-1-methyl-3-(trifluoromethyl)-1H-pyrazole-5-carboxamide] | 1 to 20
9 | Cn1nc(C(F)(F)F)cc1C(=O)NC(CC(N)=O)c1nc(-c2cccc(F)c2)no1 (single isomer, unassigned) [Compound 129, N-[3-amino-1-[3-(3-fluorophenyl)-1,2,4-oxadiazol-5-yl]-3-oxo-propyl]-2-methyl-5-(trifluoromethyl)pyrazole-3-carboxamide] | ≥ 20
10 | CC(NC(=O)c1cc(C(F)(F)F)nn1C)c1nc(-c2ccc(F)c(F)c2)no1 (centres unmarked) [Compound 67] | ≤ 1
11 | CC(C)OCc1cc(-c2noc([C@H](C)NC(=O)c3cc(C(F)(F)F)nn3C)n2)ccn1 [Compound 259, N-[(1S)-1-[3-[2-(isopropoxymethyl)-4-pyridyl]-1,2,4-oxadiazol-5-yl]ethyl]-2-methyl-5-(trifluoromethyl)pyrazole-3-carboxamide] | 1 to 20
12 | Cn1nc(C(F)(F)F)cc1C(=O)N[C@@H](CCS(C)(=O)=O)c1nc(-c2cccc(F)c2)no1 (single isomer, unassigned) [Compound 144] | 1 to 20
13 | C[C@H](NC(=O)c1ccnn1CC1CC1)c1nc(-c2ccnc(C3CCCC3)c2)no1 [Compound 309, (S)—N-(1-(3-(2-cyclopentylpyridin-4-yl)-1,2,4-oxadiazol-5-yl)ethyl)-1-(cyclopropylmethyl)-1H-pyrazole-5-carboxamide] | ≤ 1
14 | CC(c1nc(-c2cccc(CO)c2)no1)N(C)C(=O)c1cc(C(F)(F)F)nn1C (centres unmarked) [Compound 177, N-(1-(3-(3-(hydroxymethyl)phenyl)-1,2,4-oxadiazol-5-yl)ethyl)-N,1-dimethyl-3-(trifluoromethyl)-1H-pyrazole-5-carboxamide] | ≥ 20
15 | CC[C@H](NC(=O)c1cc(C(F)(F)F)nn1CC(F)F)c1nc(-c2cccc(F)c2)no1 [Compound 111] | ≤ 1
16 | Cc1cccc(-c2noc(C(C)NC(=O)c3cc(C)nn3C(F)F)n2)c1 (centres unmarked) [Compound 33] | ≤ 1
17 | C[C@H](NC(=O)c1cc(C(F)(F)F)nn1C)c1nc(-c2ccnc(CS(C)(=O)=O)c2)no1 [Compound 264, 2-methyl-N-[(1S)-1-[3-[2-(methylsulfonylmethyl)-4-pyridyl]-1,2,4-oxadiazol-5-yl]ethyl]-5-(trifluoromethyl)pyrazole-3-carboxamide] | ≥ 20
18 | Cc1nn(C(C)C)cc1C(=O)NC(C)c1nc(-c2ccc(Cl)cc2)no1 (centres unmarked) [Compound 97] | ≤ 1
19 | CCOC(=O)N[C@@H](C)c1nc(-c2ccnc(C3CC3)c2)no1 [Compound 274] | ≤ 1

Row | Compound | IC50 [µM]
20 | C[C@H](NC(=O)c1cc(C(F)(F)F)nn1CC(=O)N(C)C)c1nc(-c2ccnc(C3CC3)c2)no1 [Compound 230, (S)—N-(1-(3-(2-cyclopropylpyridin-4-yl)-1,2,4-oxadiazol-5-yl)ethyl)-1-(2-(dimethylamino)-2-oxoethyl)-3-(trifluoromethyl)-1H-pyrazole-5-carboxamide] | ≤ 1
21 | CC[C@H](NC(=O)c1cc(C(F)(F)F)nn1C)c1nc(-c2cccc(F)c2)no1 [Compound 105] | ≤ 1
22 | C[C@H](NC(=O)OC(C)(C)C)c1nc(-c2ccnc(C3CC3)c2)no1 [Compound 288, tert-butyl (S)-(1-(3-(2-cyclopropylpyridin-4-yl)-1,2,4-oxadiazol-5-yl)ethyl)carbamate] | ≤ 1
23 | Cc1nn(C(C)C)cc1C(=O)NC(C)c1nc(-c2cccc(Cl)c2)no1 (centres unmarked) [Compound 96] | ≤ 1
24 | Cc1nn(C(C)C)cc1C(=O)N[C@@H](C)c1nc(-c2ccc(Cl)c(F)c2)no1 [Compound 86] | ≤ 1
25 | C[C@H](NC(=O)c1cn(C)nc1C1CCOCC1)c1nc(-c2cccc(F)c2)no1 [Compound 166] | 1 to 20
26 | Cc1nn(C(C)C)cc1C(=O)N[C@@H](C)c1nc(-c2ccc(F)c(Cl)c2)no1 [Compound 88] | 1 to 20
27 | Cc1nn(C)c(C(=O)N[C@@H](C)c2nc(-c3ccnc(C(F)(F)F)c3)no2)c1C [Compound 244] | 1 to 20
28 | CC(NC(=O)c1cc(C(F)(F)F)nn1C)c1nc(-c2cccc(S(C)(=O)=O)c2)no1 (centres unmarked) [Compound 179, 1-methyl-N-(1-(3-(3-(methylsulfonyl)phenyl)-1,2,4-oxadiazol-5-yl)ethyl)-3-(trifluoromethyl)-1H-pyrazole-5-carboxamide] | 1 to 20
29 | Cc1nn(C2CCOCC2)cc1C(=O)N[C@@H](C)c1nc(-c2cccc(F)c2)no1 [Compound 152] | 1 to 20
30 | COC1(c2cc(-c3noc([C@H](C)NC(=O)c4cc(C(F)(F)F)nn4C)n3)ccn2)CC1 [Compound 263, (S)—N-(1-(3-(2-(1-methoxycyclopropyl)pyridin-4-yl)-1,2,4-oxadiazol-5-yl)ethyl)-1-methyl-3-(trifluoromethyl)-1H-pyrazole-5-carboxamide] | 1 to 20
31 | CC(NC(=O)c1c2c(nn1C)CCCC2)c1nc(-c2cccc(F)c2)no1 (centres unmarked) [Compound 133] | 1 to 20
32 | Cc1cc(C(=O)N[C@@H](C)c2nc(-c3ccnc(C(F)(F)F)c3)no2)n(C)n1 [Compound 252] | 1 to 20
33 | C[C@H](NC(=O)c1cc(C(F)(F)F)nn1C)c1nc(-c2ccnc(OCC3CC3)c2)no1 [Compound 214, (S)—N-(1-(3-(2-(cyclopropylmethoxy)pyridin-4-yl)-1,2,4-oxadiazol-5-yl)ethyl)-1-methyl-3-(trifluoromethyl)-1H-pyrazole-5-carboxamide] | ≤ 1
34 | Cc1cccc(-c2noc(C(C)NC(=O)c3cc(C)nn3C(C)(C)C)n2)c1 (centres unmarked) [Compound 11] | 1 to 20
35 | C[C@H](NC(=O)c1ccnn1C1CCC1)c1nc(-c2ccnc(C3CC3)c2)no1 [Compound 304, 2-cyclobutyl-N-[(1S)-1-[3-(2-cyclopropyl-4-pyridyl)-1,2,4-oxadiazol-5-yl]ethyl]pyrazole-3-carboxamide] | ≤ 1
36 | Cc1ccnc(-c2noc([C@H](C)NC(=O)OC(C)(C)C)n2)c1 [Compound 285, tert-butyl (S)-(1-(3-(4-methylpyridin-2-yl)-1,2,4-oxadiazol-5-yl)ethyl)carbamate] | ≥ 20
37 | CC[C@H](NC(=O)c1cc(C(F)(F)F)nn1C)c1nc(-c2ccnc(C(F)(F)F)c2)no1 [Compound 236, (S)-1-methyl-3-(trifluoromethyl)-N-(1-(3-(2-(trifluoromethyl)pyridin-4-yl)-1,2,4-oxadiazol-5-yl)propyl)-1H-pyrazole-5-carboxamide] | ≤ 1
38 | C[C@H](NC(=O)c1cc(C(F)(F)F)nn1C)c1nc(-c2ccnc(C#N)c2)no1 [Compound 267, (S)—N-(1-(3-(2-cyanopyridin-4-yl)-1,2,4-oxadiazol-5-yl)ethyl)-1-methyl-3-(trifluoromethyl)-1H-pyrazole-5-carboxamide] | 1 to 20
